Experimental data from ChEMBL document CHEMBL5465560, “Selectivity Literature for EUbOPEN Chemogenomic Library” (2024).

How the values were obtained:
[1] = molecular target: Phosphatidylinositol 4-phosphate 3-kinase C2 domain-containing subunit beta (Homo sapiens) (UniProt O00750); test: Selectivity interaction (KinomeScan (DiscoverX)) EUB0000092b PIK3C2B; conditions: at 10 µM
[2] = molecular target: Protein-tyrosine kinase 2-beta (Homo sapiens) (UniProt Q14289); test: Selectivity interaction (KinomeScan (DiscoverX)) EUB0000655a PTK2B; conditions: at 10 µM
[3] = molecular target: T1, Inhibitor of nuclear factor kappa-B kinase subunit epsilon (Homo sapiens) (UniProt Q14164); test: Selectivity interaction (KinomeScan (DiscoverX)) EUB0000655a IKBKE; conditions: at 10 µM
T1 sequence (whole entry): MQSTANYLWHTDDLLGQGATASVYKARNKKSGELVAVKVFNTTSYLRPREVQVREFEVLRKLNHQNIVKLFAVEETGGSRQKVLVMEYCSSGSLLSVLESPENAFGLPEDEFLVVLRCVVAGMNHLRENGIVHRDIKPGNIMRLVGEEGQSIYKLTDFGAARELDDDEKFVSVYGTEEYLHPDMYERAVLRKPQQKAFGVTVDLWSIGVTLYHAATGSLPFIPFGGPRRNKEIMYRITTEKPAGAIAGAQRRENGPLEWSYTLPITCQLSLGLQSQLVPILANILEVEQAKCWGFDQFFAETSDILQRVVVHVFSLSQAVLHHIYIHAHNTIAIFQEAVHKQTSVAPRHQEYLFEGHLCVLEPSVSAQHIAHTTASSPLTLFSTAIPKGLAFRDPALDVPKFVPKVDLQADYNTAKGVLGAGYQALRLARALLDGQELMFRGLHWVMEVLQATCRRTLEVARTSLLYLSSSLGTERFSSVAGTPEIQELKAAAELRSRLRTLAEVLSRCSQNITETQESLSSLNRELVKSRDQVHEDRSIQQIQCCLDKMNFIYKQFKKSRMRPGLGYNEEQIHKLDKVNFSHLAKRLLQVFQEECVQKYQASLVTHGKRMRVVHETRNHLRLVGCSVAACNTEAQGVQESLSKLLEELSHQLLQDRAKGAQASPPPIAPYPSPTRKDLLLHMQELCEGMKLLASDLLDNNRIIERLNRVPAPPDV

[4] = molecular target: Cyclin-dependent kinase 1 (Homo sapiens) (UniProt P06493); test: Selectivity interaction (ActivX KiNativ screen (kinase selectivity in THP-1 cell lysates)) EUB0000639a CDK1; format: subcellular; conditions: lysate
[5] = molecular target: T2, Serine/threonine-protein kinase greatwall (Homo sapiens) (UniProt Q96GX5); test: Selectivity interaction (ActivX KiNativ screen (kinase selectivity in THP-1 cell lysates)) EUB0000639a MASTL; format: subcellular; conditions: lysate, at 0.04 µM
T2 sequence (whole entry): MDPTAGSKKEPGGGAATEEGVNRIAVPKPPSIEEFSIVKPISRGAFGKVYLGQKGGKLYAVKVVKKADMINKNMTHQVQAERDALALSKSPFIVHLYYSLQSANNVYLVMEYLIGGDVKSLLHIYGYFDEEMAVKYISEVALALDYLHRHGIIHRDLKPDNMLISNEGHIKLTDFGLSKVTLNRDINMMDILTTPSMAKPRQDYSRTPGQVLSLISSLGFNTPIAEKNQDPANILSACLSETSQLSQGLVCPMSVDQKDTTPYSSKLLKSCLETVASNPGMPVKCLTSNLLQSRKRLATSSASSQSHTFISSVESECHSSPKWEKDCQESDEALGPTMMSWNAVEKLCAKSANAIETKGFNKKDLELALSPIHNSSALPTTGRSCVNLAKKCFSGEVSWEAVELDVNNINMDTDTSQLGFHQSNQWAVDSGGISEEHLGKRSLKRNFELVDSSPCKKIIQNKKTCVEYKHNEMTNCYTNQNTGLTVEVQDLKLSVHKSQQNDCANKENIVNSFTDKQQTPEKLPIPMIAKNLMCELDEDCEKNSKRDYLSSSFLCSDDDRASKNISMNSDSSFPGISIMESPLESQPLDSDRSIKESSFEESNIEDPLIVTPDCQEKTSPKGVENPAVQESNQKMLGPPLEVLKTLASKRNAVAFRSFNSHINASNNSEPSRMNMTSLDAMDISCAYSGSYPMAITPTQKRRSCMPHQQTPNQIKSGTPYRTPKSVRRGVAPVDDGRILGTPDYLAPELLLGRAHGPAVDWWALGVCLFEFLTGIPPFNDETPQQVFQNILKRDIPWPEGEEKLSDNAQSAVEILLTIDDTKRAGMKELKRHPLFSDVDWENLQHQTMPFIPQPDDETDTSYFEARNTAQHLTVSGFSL

[6] = molecular target: T3, Tyrosine-protein kinase receptor TYRO3 (Homo sapiens) (UniProt Q06418); test: Selectivity interaction (KinomeScan (DiscoverX)) EUB0000595a TYRO3; conditions: at 10 µM
T3 sequence (whole entry): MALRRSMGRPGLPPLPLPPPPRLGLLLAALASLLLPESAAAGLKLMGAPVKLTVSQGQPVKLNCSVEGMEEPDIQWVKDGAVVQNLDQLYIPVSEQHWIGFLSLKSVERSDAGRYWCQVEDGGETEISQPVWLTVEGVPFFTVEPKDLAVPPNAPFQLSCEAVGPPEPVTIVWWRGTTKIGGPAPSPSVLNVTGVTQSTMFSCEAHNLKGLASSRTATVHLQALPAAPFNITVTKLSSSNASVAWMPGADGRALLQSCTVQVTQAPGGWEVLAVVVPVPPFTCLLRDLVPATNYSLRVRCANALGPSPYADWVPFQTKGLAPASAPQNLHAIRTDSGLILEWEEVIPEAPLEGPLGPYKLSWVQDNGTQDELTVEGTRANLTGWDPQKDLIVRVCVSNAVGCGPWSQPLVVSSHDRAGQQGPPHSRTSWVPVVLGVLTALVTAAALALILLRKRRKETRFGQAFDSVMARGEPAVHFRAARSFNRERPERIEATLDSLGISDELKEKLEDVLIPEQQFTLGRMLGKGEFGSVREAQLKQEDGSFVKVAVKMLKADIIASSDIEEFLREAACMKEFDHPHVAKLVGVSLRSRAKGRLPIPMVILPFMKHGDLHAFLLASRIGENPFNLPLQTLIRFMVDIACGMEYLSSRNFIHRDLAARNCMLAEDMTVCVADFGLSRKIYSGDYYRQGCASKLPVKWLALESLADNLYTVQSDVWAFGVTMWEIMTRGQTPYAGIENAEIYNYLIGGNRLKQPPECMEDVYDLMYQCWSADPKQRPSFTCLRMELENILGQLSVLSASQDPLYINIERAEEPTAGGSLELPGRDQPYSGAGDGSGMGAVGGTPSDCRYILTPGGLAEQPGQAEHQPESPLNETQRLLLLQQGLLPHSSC

[7] = molecular target: Serine/threonine-protein kinase MRCK beta (Homo sapiens) (UniProt Q9Y5S2); test: Selectivity interaction (KinomeScan (DiscoverX)) EUB0000618a CDC42BPB; conditions: at 10 µM
[8] = molecular target: Mitogen-activated protein kinase 8 (Homo sapiens, UniProt P45983); test: Selectivity interaction (ActivX KiNativ screen (ex vivo kinase selectivity in human PBMCs)) EUB0001619a MAPK8; format: cell-based; conditions: PBMC, at 1 µM
Mitogen-activated protein kinase 8, sequence (P45983 whole entry): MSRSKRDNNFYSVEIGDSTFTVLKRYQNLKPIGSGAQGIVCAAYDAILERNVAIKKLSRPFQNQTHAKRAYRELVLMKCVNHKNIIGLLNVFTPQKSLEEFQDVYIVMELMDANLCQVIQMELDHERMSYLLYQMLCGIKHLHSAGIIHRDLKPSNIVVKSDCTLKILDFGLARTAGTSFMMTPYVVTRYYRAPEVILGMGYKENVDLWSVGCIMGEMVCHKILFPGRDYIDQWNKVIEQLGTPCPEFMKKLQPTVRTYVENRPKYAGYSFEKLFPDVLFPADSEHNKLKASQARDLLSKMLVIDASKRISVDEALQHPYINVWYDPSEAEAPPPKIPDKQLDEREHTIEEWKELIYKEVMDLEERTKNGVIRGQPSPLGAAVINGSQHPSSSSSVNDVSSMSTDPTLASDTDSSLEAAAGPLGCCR

Cyclin-dependent kinase 1 (Homo sapiens), sequence (P06493 whole entry, looked up): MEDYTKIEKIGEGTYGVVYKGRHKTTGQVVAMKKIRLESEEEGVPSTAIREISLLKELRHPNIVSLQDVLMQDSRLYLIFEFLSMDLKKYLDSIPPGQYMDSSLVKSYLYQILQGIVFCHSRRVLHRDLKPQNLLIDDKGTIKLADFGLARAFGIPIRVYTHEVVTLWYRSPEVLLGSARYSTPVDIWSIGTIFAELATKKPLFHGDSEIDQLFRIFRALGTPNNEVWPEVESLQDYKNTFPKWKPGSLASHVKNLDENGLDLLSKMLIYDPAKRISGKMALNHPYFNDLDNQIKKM
Serine/threonine-protein kinase MRCK beta (Homo sapiens), sequence (Q9Y5S2 whole entry): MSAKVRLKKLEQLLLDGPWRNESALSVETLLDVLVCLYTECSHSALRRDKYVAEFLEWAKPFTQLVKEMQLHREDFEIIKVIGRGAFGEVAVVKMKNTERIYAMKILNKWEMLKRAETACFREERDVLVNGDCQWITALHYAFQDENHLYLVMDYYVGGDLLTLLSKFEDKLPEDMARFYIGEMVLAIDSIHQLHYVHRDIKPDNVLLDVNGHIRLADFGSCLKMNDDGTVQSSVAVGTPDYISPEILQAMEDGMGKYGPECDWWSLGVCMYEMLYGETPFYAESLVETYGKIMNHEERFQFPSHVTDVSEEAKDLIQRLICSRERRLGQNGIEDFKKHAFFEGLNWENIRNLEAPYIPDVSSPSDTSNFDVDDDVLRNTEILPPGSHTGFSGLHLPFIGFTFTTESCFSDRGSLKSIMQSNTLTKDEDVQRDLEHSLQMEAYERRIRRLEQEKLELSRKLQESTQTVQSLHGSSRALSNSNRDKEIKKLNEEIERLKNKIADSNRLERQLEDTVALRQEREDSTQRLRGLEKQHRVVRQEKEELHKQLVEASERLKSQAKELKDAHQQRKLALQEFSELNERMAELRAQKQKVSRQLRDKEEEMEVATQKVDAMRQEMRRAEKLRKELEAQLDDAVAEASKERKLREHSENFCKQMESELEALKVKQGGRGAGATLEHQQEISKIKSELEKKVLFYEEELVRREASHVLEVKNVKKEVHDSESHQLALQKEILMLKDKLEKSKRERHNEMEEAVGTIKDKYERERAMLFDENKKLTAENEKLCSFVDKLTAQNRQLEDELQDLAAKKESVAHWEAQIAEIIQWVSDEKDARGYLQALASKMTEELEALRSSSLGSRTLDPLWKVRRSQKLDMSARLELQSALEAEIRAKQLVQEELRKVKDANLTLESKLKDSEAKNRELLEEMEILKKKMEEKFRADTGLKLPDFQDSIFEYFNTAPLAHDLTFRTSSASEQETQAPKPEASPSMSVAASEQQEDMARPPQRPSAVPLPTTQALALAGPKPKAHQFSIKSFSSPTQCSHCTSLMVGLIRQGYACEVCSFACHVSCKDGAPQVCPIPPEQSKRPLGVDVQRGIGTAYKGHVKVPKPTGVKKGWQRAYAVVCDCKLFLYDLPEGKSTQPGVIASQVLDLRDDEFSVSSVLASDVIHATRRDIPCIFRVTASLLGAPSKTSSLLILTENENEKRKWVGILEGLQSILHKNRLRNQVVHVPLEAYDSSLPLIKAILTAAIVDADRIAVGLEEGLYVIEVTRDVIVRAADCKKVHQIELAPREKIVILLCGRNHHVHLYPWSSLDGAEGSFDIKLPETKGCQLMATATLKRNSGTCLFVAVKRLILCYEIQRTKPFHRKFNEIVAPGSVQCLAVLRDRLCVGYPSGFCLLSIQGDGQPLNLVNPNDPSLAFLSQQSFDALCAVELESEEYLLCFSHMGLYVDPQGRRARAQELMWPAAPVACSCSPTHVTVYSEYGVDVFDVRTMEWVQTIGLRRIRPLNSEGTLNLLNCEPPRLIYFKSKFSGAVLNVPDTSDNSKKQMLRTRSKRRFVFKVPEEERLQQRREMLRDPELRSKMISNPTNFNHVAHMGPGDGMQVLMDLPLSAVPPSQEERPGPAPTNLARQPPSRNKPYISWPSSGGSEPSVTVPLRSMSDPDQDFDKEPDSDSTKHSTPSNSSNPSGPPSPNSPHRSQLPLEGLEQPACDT
Phosphatidylinositol 4-phosphate 3-kinase C2 domain-containing subunit beta (Homo sapiens), sequence (O00750 whole entry, the tested form may be a part): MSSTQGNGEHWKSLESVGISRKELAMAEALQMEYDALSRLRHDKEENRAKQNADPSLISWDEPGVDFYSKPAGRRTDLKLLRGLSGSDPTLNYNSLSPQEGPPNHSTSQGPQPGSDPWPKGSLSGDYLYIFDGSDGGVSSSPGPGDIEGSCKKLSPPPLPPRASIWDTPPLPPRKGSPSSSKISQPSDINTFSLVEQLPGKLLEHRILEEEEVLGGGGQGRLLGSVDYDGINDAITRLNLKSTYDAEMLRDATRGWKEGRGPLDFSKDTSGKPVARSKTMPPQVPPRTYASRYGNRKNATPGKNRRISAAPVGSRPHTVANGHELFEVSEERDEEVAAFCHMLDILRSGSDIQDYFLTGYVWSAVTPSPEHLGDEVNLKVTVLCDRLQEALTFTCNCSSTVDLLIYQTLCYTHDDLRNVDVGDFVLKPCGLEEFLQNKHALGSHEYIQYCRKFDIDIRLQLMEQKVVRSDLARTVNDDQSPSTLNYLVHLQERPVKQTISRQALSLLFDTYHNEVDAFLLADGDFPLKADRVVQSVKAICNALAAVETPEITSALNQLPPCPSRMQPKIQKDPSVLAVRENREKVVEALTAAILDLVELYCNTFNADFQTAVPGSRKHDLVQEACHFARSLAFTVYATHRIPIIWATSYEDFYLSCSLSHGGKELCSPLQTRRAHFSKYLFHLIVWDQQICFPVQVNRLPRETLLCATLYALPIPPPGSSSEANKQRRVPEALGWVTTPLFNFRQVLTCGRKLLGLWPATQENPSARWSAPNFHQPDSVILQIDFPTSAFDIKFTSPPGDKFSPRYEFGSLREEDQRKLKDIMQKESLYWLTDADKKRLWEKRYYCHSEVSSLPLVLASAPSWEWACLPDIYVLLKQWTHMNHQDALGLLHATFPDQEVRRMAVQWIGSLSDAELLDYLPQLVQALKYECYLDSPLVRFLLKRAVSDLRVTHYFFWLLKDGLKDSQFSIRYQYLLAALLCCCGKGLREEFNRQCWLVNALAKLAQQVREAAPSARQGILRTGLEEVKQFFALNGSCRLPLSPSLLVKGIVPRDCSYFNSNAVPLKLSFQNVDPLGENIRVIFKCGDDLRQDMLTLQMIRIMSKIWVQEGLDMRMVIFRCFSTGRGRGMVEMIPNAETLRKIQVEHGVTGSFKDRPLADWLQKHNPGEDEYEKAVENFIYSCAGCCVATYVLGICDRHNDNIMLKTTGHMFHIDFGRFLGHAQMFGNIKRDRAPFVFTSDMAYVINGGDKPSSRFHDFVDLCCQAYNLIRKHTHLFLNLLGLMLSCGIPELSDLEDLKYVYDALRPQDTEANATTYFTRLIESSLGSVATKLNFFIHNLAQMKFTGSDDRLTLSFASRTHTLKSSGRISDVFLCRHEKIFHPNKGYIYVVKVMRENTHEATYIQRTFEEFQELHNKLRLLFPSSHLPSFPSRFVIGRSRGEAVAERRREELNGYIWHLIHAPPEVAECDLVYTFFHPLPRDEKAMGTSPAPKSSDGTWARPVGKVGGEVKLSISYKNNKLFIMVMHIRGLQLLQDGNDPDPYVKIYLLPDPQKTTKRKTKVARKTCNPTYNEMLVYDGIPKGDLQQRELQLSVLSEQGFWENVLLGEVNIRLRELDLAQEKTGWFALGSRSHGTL
Protein-tyrosine kinase 2-beta (Homo sapiens), sequence (Q14289 whole entry, looked up): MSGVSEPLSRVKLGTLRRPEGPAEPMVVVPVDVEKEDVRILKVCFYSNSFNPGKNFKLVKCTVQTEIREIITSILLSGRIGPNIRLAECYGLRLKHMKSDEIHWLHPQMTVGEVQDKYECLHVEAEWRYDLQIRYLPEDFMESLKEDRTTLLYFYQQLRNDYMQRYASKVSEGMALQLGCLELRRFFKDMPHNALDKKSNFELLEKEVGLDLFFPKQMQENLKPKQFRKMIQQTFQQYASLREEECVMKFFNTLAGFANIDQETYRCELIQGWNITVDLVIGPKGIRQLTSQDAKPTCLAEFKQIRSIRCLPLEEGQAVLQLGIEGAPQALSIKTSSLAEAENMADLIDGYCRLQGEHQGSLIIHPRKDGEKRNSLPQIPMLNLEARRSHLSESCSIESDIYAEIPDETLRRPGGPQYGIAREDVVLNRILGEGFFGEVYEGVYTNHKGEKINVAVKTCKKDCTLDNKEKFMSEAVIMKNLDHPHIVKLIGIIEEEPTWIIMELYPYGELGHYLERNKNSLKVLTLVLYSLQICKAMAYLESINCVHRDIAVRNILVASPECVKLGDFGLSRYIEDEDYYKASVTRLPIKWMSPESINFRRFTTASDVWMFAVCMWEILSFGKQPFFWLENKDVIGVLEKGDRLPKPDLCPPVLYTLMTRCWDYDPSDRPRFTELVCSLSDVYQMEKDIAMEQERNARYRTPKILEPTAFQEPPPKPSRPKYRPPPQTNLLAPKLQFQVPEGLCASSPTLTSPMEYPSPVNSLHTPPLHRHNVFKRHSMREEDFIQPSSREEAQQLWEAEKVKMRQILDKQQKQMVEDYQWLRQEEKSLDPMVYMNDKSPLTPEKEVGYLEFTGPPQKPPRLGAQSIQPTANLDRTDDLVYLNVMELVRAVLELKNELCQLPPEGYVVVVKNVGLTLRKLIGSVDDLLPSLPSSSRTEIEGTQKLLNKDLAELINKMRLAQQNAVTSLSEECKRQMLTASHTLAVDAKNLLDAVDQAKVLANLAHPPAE

In the case of `CCC(=O)N1CCN(c2ccc(-n3c(=O)ccc4cnc5ccc(-c6cnc7ccccc7c6)cc5c43)cc2C(F)(F)F)CC1`, the % of control [1] is reported as 25%.
Compound `CN(C)CCOc1ccc(-c2nc(-c3ccncc3)c(-c3ccc4c(c3)CC/C4=N\O)[nH]2)cc1` has a % of control [2] of 100% and a % of control [3] of 85%.
For `CC[C@@H]1[C@H](F)C(=O)N[C@@H]1COc1nccc2cc(C(N)=O)c(OC)cc12` [ZIMLOVISERTIB], the % of inhibition ([4]; at 0.01 µM) was 2.4%, the % of inhibition ([4]; at 0.04 µM) was 3.3% and the % of inhibition ([4]; at 0.2 µM) was 14.8%. It also gave a % of inhibition ([4]; at 1 µM) of 3.1%, a % of inhibition ([4]; at 5 µM) of -9% and a % of inhibition [5] of 3.9%.
`COCC(=O)NC/C=C/c1ccc2ncnc(Nc3ccc(Oc4ccc(C)nc4)c(C)c3)c2c1` [CP-724714] was tested, and the % of control [6] was 80%.
`O[C@H]1CC[C@H](Nc2ncc3nc(Nc4c(F)cc(F)cc4F)n([C@H]4CCOC4)c3n2)CC1` was tested, and the % of control [7] was 100%.
Work on `N#Cc1cccc(-c2c[nH]c3ncnc(N4CCOCC4)c23)c1` yielded a % of inhibition [8] of 5%.
